Key:
[1] = target: T1, Delta-type opioid receptor (Rattus norvegicus, UniProt P33533); experiment: The compound was tested for the ability to displace delta-receptor specific radioligand [3H]DSLET
[2] = target: T1, Delta-type opioid receptor; experiment: The compound was tested for the ability to displace delta-receptor specific radioligand [3H]DPDPE
[3] = species: Mus musculus; experiment: The compound was tested In vitro for the ability to inhibit electrically induced contractions of the mouse vas deferens; assay type: functional
[4] = target: T2, Mu-type opioid receptor (Rattus norvegicus, UniProt P33535); experiment: The compound was tested for the ability to displace Opioid receptor mu 1 specific radioligand [3H]DAGO
T2 sequence (P33535 whole entry): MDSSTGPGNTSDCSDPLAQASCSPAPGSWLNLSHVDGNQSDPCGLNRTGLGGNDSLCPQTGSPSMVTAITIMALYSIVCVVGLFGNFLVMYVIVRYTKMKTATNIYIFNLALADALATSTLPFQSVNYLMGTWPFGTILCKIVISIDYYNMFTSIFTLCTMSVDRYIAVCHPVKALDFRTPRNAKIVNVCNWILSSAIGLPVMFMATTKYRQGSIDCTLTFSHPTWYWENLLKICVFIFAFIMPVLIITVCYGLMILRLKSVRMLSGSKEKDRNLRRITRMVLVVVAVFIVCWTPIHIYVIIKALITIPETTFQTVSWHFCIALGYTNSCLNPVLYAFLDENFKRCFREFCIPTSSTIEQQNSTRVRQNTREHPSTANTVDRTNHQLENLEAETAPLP

[5] = species: Cavia porcellus; experiment: The compound was tested In vitro for the ability to inhibit electrically induced contractions of the guinea pig ileum; assay type: functional
[6] = target: Kappa-type opioid receptor (Rattus norvegicus, UniProt P34975); experiment: The compound was tested for the ability to displace opioid receptor kappa specific radioligand [3H]DADLE
[7] = (§1) Ratio of inhibition of electrically induced contractions in GPI and MVD
[8] = as §1; assay type: functional
[9] = target: T1, Delta-type opioid receptor; experiment: The compound was tested for the ability to displace receptor specific radioligand [3H]DPDPE
[10] = target: T2, Mu-type opioid receptor; experiment: The compound was tested for the ability to displace mu-receptor specific radioligand [3H]DAGO
[11] = target: T1, Delta-type opioid receptor; experiment: The compound was tested for the ability to displace opioid receptor delta specific radioligand [3H]-DSLET

T1 sequence (P33533 whole entry): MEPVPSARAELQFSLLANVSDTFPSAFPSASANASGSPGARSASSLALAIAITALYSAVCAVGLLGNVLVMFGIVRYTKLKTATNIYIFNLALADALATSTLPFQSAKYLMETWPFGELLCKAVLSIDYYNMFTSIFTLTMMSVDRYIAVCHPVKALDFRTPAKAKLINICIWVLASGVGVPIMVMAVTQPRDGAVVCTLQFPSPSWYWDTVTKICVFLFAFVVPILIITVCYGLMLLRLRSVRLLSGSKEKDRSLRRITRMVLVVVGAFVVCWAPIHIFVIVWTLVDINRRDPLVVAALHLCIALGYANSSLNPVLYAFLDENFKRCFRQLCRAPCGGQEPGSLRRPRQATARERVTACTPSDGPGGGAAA

`N[C@@H](Cc1ccc(O)cc1)C(=O)N[C@H]1C(=O)NCC(=O)N[C@@H](Cc2ccccc2)C(=O)N[C@H](C(=O)O)CSSC12CCCCC2` (stereo in doubt; 6) [listing 1 of 2 here] showed a Ki [1] of 683 nM, a Ki [2] of 387 nM and an IC50 [3] of over 4240 nM. The Ki [4] was 4010 nM and the IC50 [5] was 70900 nM.

In the case of `CC1(C)SSC[C@@H](NC(=O)[C@@H](N)Cc2ccc(O)cc2)C(=O)NCC(=O)N[C@@H](Cc2ccccc2)C(=O)N[C@H]1C(=O)O`, the Ki [6] is reported as […] and the IC50 ([5]; Cavia porcellus, Ileum) is reported as 40 nM.

`N[C@@H](Cc1ccc(O)cc1)C(=O)N[C@H]1C(=O)NCC(=O)N[C@@H](Cc2ccccc2)C(=O)N[C@H](C(=O)O)CSSC12CCCCC2` (stereo in doubt; 6) [listing 2 of 2 here] showed a Ratio [7] of under 16.7.

Work on `N[C@@H](Cc1ccc(O)cc1)C(=O)N[C@H]1C(=O)NCC(=O)N[C@@H](Cc2ccccc2)C(=O)N[C@H](C(=O)O)CSSC12CCCCC2` (stereo in doubt; 5) [listing 1 of 2 here] yielded a Ratio [8] of under 14.7.

In the case of `CC1(C)SSC[C@@H](NC(=O)[C@@H](N)Cc2ccc(O)cc2)C(=O)NCC(=O)N[C@@H](Cc2ccccc2)C(=O)N[C@@H]1C(=O)O`, the Ki [6] is reported as […] and the IC50 ([5]; Cavia porcellus, Ileum) is reported as 67 nM.

With `N[C@@H](Cc1ccc(O)cc1)C(=O)N[C@@H]1CSSC2(CCCCC2)[C@@H](C(=O)O)NC(=O)[C@H](Cc2ccccc2)NC(=O)CNC1=O` the IC50 ([3]; Mus musculus, Vas deferens) was 0.0745 nM and the IC50 ([5]; Cavia porcellus, Ileum) was 13.3 nM.

For `N[C@@H](Cc1ccc(O)cc1)C(=O)N[C@H]1C(=O)NCC(=O)N[C@@H](Cc2ccccc2)C(=O)N[C@H](C(=O)O)CSSC12CCCCC2` (stereo in doubt; 5) [listing 2 of 2 here], the IC50 [3] was over 2040 nM, the Ki [9] was 15 nM and the Ki [10] was 1800 nM. For the same compound, the Ki [11] was 31.3 nM and the IC50 [5] was 29900 nM.

Work on `CC1(C)SSC[C@H](C(=O)O)NC(=O)[C@H](Cc2ccccc2)NC(=O)CNC(=O)[C@@H]1NC(=O)[C@@H](N)Cc1ccc(O)cc1` yielded a Ki [6] of […] and an IC50 ([5]; Cavia porcellus, Ileum) of 1350 nM.

Work on `N[C@@H](Cc1ccc(O)cc1)C(=O)N[C@@H]1CSSC2(CCCCC2)[C@H](C(=O)O)NC(=O)[C@H](Cc2ccccc2)NC(=O)CNC1=O` yielded an IC50 ([3]; Mus musculus, Vas deferens) of 0.0564 nM.
